“And” between values parts separate entries of the source, which are not always exact repeats. Equal entries are not always repeated.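 Results reflect a 48-hour exposure of cells in 96-well plates to compound at five concentrations. GI50 marks 50% less growth. TGI: total growth inhibition.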
How the values were obtained:
Test in all cases: NCI anticancer screen, dose series, 48 h
NCI-H522 lung = test system: NCI-H522 lung
RXF 393 renal = test system: RXF 393 renal
HOP-92 NSCLC = test system: HOP-92 NSCLC
HCC-2998 colon = test system: HCC-2998 colon
M14 melanoma = test system: M14 melanoma
SNB-19 CNS = test system: SNB-19 CNS
HCT-116 colon = test system: HCT-116 colon
K-562 leukemia = test system: K-562 leukemia

SMILES | GI50 (NCI-H522 lung) | TGI (NCI-H522 lung) | GI50 (RXF 393 renal) | TGI (RXF 393 renal) | GI50 (HOP-92 NSCLC) | TGI (HOP-92 NSCLC) [µM] | GI50 (HCC-2998 colon) | TGI (HCC-2998 colon) | GI50 (M14 melanoma) | TGI (M14 melanoma) | GI50 (SNB-19 CNS) | TGI (SNB-19 CNS) [µM] | GI50 (HCT-116 colon) | TGI (HCT-116 colon) | GI50 (K-562 leukemia) [µM] | TGI (K-562 leukemia) [µM]
CCN(CC)CCCNCc1cc(-c2ccccc2)nc2ccccc12 | 15.9 µM | 52.3 µM | 6990 nM | 39.9 µM | 2340 nM | 9.41 | 14900 nM | 31.1 µM | 4.63 µM | 14.4 µM | 14.2 µM | > 100 | 352 nM | 17.9 µM | 5.63 | 22.1
COc1cc(-c2cc(O)c(-c3ccc4ccccc4n3)c(=O)[nH]2)cc(OC)c1OC | – | 40.8 µM | – | > 82.8 µM | – | > 81.6 | – | > 100 µM | – | > 95.2 µM | – | > 100 | – | 62.2 µM | – | > 32.1
CCOC(=O)c1cc2c(cc1Cl)SC(N(c1ccc(OC)cc1)S(=O)(=O)c1ccc(Cl)cc1)=NS2(=O)=O | 21 µM | 64.8 µM | – | – | 19100 nM | 38.6 | > 100000 nM | > 100 µM | 38.7 µM | > 100 µM | 36.8 µM | > 100 | 35800 nM | > 100 µM | 38.6 | > 100
CNC(=O)c1ccccc1Nc1nc(Nc2cc(OC)c(OC)c(OC)c2)ncc1Br | 0.0417 µM | 1.85 µM | 15.4 nM | 0.0712 µM | < 15.2 nM | 0.0874 | 27 nM | 1.54 µM | 0.0191 µM | 1.38 µM | 0.12 µM | 2.53 | – | – | 0.0874 | > 38.9
CN(C)CCNC(=O)c1cccc(N(C)C(=O)c2ccccc2)c1[N+](=O)[O-] | – | > 100 µM | – | – | – | – | – | > 100 µM | – | > 100 µM | – | > 100 | – | > 100 µM | – | > 100
Cc1nc(-c2cn3c(n2)-c2ccc(-c4cnn(C(C)(C)C(N)=O)c4)cc2OCC3)n(C(C)C)n1 | 5.73 µM and 6.01 µM | 26.7 µM and > 10 µM | 537 nM and 727 nM | 4.61 µM and > 7.26 µM | 21.1 nM and 25.3 nM | – | 895 nM and 295 nM | 17.2 µM and > 10 µM | 3.24 µM and 3.57 µM | 26 µM and > 10 µM | 1.92 µM and 2.47 µM | > 100 | 1200 nM and 399 nM | 23.4 µM and > 10 µM | 8.86 | > 75.7
O=c1[nH]c(=S)[nH]c2c1CN(CCCN1CCOCC1)CN2 | – | 52.3 µM | – | – | – | > 100 | – | 73.3 µM | – | 59.6 µM | – | > 100 | – | > 100 µM | – | > 100
O=C(COc1cc(O)c2c(=O)cc(-c3ccccc3)oc2c1)Nc1ccccc1C(F)(F)F | 6.77 µM | > 100 µM | 2210 nM | 6.34 µM | 2130 nM | 6.71 | > 100000 nM | > 100 µM | 27.6 µM | > 100 µM | 4.17 µM | 21.7 | 1830 nM | 4.06 µM | 5.03 | > 100
Nc1nnnn1CCO | – | > 100 µM | – | > 100 µM | – | > 100 | – | – | – | > 100 µM | – | > 100 | – | > 100 µM | – | > 100
Oc1ccc(C(c2ccc(O)cc2)c2ccc(O)cc2)cc1 | – | 32.9 µM | – | 39.5 µM | – | 60.5 | – | 40 µM | – | – | – | 66.1 | – | 35 µM | – | –
CC(=O)c1c(C)[nH]c(-c2nc3ccc(N4CCN(C)CC4)cc3[nH]2)c1-c1ccc(N(C)C)cc1 | 0.606 µM | 16.6 µM | 486 nM | 2.08 µM | 147 nM | 2.53 | 1060 nM | 8.38 µM | 0.537 µM | 13.4 µM | 1.89 µM | > 100 | 803 nM | 13.6 µM | 0.461 | 8.79
N=c1ccn(O)cc1/C=C1/C(=O)Nc2ccccc21 | > 100 µM | > 100 µM | – | – | > 100000 nM | > 100 | > 100000 nM | > 100 µM | > 100 µM | > 100 µM | > 100 µM | > 100 | > 100000 nM | > 100 µM | > 100 | > 100
CCC(=C/[C@H](C)C/C=C/C(C)=C/[C@@H](C)C(=O)[C@@H](C)[C@H](O)[C@@H](C)CC)/C=C/[C@@H]1OC(=O)C=C[C@H]1C | < 0.01 µM | < 0.01 µM | < 10 nM | < 0.01 µM | < 10 nM | < 0.01 | < 10 nM | < 0.01 µM | < 0.01 µM | 0.0103 µM | < 0.01 µM | – | < 10 nM | < 0.01 µM | < 0.01 | 1.07
C/C(=N\NS(=O)(=O)c1ccc(C)cc1)P(=O)(O)O | – | > 100 µM | – | > 100 µM | – | > 100 | – | – | – | > 100 µM | – | > 100 | – | > 100 µM | – | > 100
Clc1ccc(-c2c3c(nn2-c2ccccn2)CCc2ccccc2-3)cc1Cl | > 100 µM | > 100 µM | 94600 nM | > 100 µM | – | – | > 100000 nM | > 100 µM | 34 µM | > 100 µM | > 100 µM | > 100 | 76100 nM | > 100 µM | > 100 | > 100
COc1cccc(NC(=O)c2sc3nc(C)c(C(O)c4ccccc4)cc3c2N)c1 (stereo not drawn) | 0.308 µM | 14.1 µM | 226 nM | 2.75 µM | 4210 nM | 26.9 | 359 nM | 4.05 µM | 0.199 µM | 17.4 µM | 0.467 µM | 74.6 | 241 nM | 12 µM | 0.117 | > 100
CC(C)=CCC[C@](C)(O)[C@H]1CC[C@]2(C)[C@@H]1CC[C@@H]1[C@@]3(C)CC/C(=N/O)C(C)(C)[C@@H]3CC[C@]12C | 13.5 µM | 99 µM | 8230 nM | 38.4 µM | 7480 nM | 26.2 | 12900 nM | 50.8 µM | 16.3 µM | > 100 µM | 12.2 µM | > 100 | 4130 nM | 27.2 µM | 6.06 | > 100
C#CCSc1cc(Cl)c(C)cc1S(=O)(=O)Nc1nc2ccccc2o1 | 25.7 µM | 61.5 µM | 32900 nM | > 100 µM | 17900 nM | 51.3 | 22500 nM | 48.3 µM | 32.1 µM | 67.9 µM | 44.5 µM | > 100 | 24500 nM | 55.1 µM | 69.8 | > 100

Reference: PubChem BioAssay (NCI)
